# Results: ChEMBL document CHEMBL4393704, “Synthesis and biological evaluation of dihydroquinazoline-2-amines as potent non-nucleoside reverse transcriptase inhibitors of wild-type and mutant HIV-1 strains” (Eur J Med Chem, 2019)
# Experiments:
# [1] = Cytotoxicity against human MT4 cells measured after 5 days by MTT assay; assay type: cell-based
# [2] = tested on: Human immunodeficiency virus 1; assay: Antiviral activity against HIV-1 3B harboring reverse transcriptase E138K mutant infected in MT4 cells measured after 5 days by MTT assay; assay type: functional, organism-based; conditions: Human immunodeficiency virus 1, 3B, MT4, 120 h
# [3] = Selectivity index, ratio of CC50 for human MT4 cells to EC50 for HIV-1 3B infected in MT4 cells; assay type: toxicity, cell-based; conditions: HIV-1 3B infected MT4 cells, read-out: Ratio CC50/EC50
# [4] = tested on: Human immunodeficiency virus 1; assay: Antiviral activity against wild type HIV-1 3B infected in MT4 cells measured after 5 days by MTT assay; assay type: functional, organism-based; conditions: Human immunodeficiency virus 1, 3B, MT4, 120 h
# [5] = tested on: Human immunodeficiency virus 1; assay: Antiviral activity against HIV-1 3B harboring reverse transcriptase RES056 mutant infected in MT4 cells measured after 5 days by MTT assay; assay type: functional, organism-based; conditions: Human immunodeficiency virus 1, 3B, MT4, 120 h
# [6] = molecular target: Human immunodeficiency virus type 1 reverse transcriptase (Human immunodeficiency virus 1, UniProt Q72547); assay: Inhibition of recombinant wild-type HIV1 3B reverse transcriptase assessed as reduction in biotin-dUTP incorporation using poly(rA)/oligo(dT)16 as template primer incubated for 1 hr followed by the addition of (DIG)-dUTP and biotin-labeled dNTPs by ELISA
# [7] = tested on: Human immunodeficiency virus 1; assay: Potency index, ratio of ETV EC50 to compound EC50 for antiviral activity against HIV-1 3B harboring reverse transcriptase E138K mutant infected in MT4 cells measured after 5 days by MTT assay; assay type: functional
# [8] = tested on: Human immunodeficiency virus 1; assay: Potency index, ratio of EFV EC50 to compound EC50 for antiviral activity against wild type HIV-1 3B infected in MT4 cells measured after 5 days by MTT assay; assay type: functional
# [9] = tested on: Human immunodeficiency virus 1; assay: Potency index, ratio of ETV EC50 to compound EC50 for antiviral activity against wild type HIV-1 3B infected in MT4 cells measured after 5 days by MTT assay; assay type: functional
Compound,CC50 at 120 h [1] [nM],EC50 [2] [nM],selectivity ratio [3],EC50 [4] [nM],EC50 [5] [nM],IC50 [6] [nM],Ratio EC50 [7],Ratio EC50 [8],Ratio EC50 [9]
FC(F)(F)C1(C#CC2CC2)NC(Nc2ccc(Br)cc2)=Nc2ccc(Cl)cc21 (stereo not given),> 3400,> 3400,> 8,450,> 3400,,,,
Cc1cc(C)cc(NC2=Nc3ccc(Cl)cc3C(C#CC3CC3)(C(F)(F)F)N2)c1 (stereo not given),2100,600,6,360,> 2100,,,,
FC(F)(F)C1(C#CC2CC2)NC(Nc2ccc(Cl)c(Cl)c2)=Nc2ccc(Cl)cc21 (stereo not given),2100,170,70,30,> 2100,3.7,,,
Cc1ccc(NC2=Nc3ccc(Cl)cc3C(C#CC3CC3)(C(F)(F)F)N2)cc1 (stereo not given),5000,400,20,250,> 4900,,,,
FC(F)(F)C1(C#CC2CC2)NC(Nc2ccccc2Br)=Nc2ccc(Cl)cc21 (stereo not given),11000,160,133,88,1800,3.4,,,
O=C1Nc2ccc(Cl)cc2[C@@](C#CC2CC2)(C(F)(F)F)O1 [EFAVIRENZ],> 2000,2,,,55,,,,
Cc1cccc(NC2=Nc3ccc(Cl)cc3C(C#CC3CC3)(C(F)(F)F)N2)c1 (stereo not given),2100,360,10,210,> 2100,,,,
N#Cc1ccc(NC2=Nc3ccc(Cl)cc3C(C#CC3CC3)(C(F)(F)F)N2)cc1 (stereo not given),1900,3.5,2300,0.84,66,10,2,2,9
O=[N+]([O-])c1cccc(NC2=Nc3ccc(Cl)cc3C(C#CC3CC3)(C(F)(F)F)N2)c1 (stereo not given),1600,360,14,120,> 1600,,,,
Fc1ccc(NC2=Nc3ccc(Cl)cc3C(C#CC3CC3)(C(F)(F)F)N2)cc1 (stereo not given),2400,460,9,250,> 2300,,,,
FC(F)(F)C1(C#CC2CC2)NC(Nc2cccc(Cl)c2)=Nc2ccc(Cl)cc21 (stereo not given),2000,480,9,210,> 2000,,,,
FC(F)(F)C1(C#CC2CC2)NC(Nc2ccccc2)=Nc2ccc(Cl)cc21 (stereo not given),2400,380,21,110,> 2400,,,,
FC(F)(F)C1(C#CC2CC2)NC(Nc2cccc(Br)c2)=Nc2ccc(Cl)cc21 (stereo not given),2100,420,14,150,> 2100,,,,
Cc1cc(C#N)cc(C)c1Oc1nc(Nc2ccc(C#N)cc2)nc(N)c1Br [ETRAVIRINE],> 2000,6.3,> 923,,15,,,,
N#Cc1cccc(NC2=Nc3ccc(Cl)cc3C(C#CC3CC3)(C(F)(F)F)N2)c1 (stereo not given),2200,650,5,440,> 2200,,,,
Fc1ccccc1NC1=Nc2ccc(Cl)cc2C(C#CC2CC2)(C(F)(F)F)N1 (stereo not given),3100,140,31,100,> 3100,,,,
COc1ccc(NC2=Nc3ccc(Cl)cc3C(C#CC3CC3)(C(F)(F)F)N2)cc1 (stereo not given),8400,410,32,260,> 8400,,,,
Fc1ccc(NC2=Nc3ccc(Cl)cc3C(C#CC3CC3)(C(F)(F)F)N2)cc1F (stereo not given),1800,> 1800,5,360,> 1800,,,,
Cc1ccc(NC2=Nc3ccc(Cl)cc3C(C#CC3CC3)(C(F)(F)F)N2)cc1C (stereo not given),5900,560,8,610,> 5800,,,,
COc1cccc(NC2=Nc3ccc(Cl)cc3C(C#CC3CC3)(C(F)(F)F)N2)c1 (stereo not given),2700,290,44,63,> 2600,1.1,,,
Cc1ccccc1NC1=Nc2ccc(Cl)cc2C(C#CC2CC2)(C(F)(F)F)N1 (stereo not given),4100,400,30,140,> 4100,,,,
Fc1cccc(NC2=Nc3ccc(Cl)cc3C(C#CC3CC3)(C(F)(F)F)N2)c1 (stereo not given),2000,340,12,160,> 2000,,,,
NC(=O)c1ccc(NC2=Nc3ccc(Cl)cc3C(C#CC3CC3)(C(F)(F)F)N2)cc1 (stereo not given),12000,160,58,220,> 2900,,,,
COc1ccccc1NC1=Nc2ccc(Cl)cc2C(C#CC2CC2)(C(F)(F)F)N1 (stereo not given),8600,190,58,150,> 8600,,,,
Fc1ccc(NC2=Nc3ccc(Cl)cc3C(C#CC3CC3)(C(F)(F)F)N2)cc1Cl (stereo not given),1900,460,10,190,> 1800,,,,
FC(F)(F)c1cccc(NC2=Nc3ccc(Cl)cc3C(C#CC3CC3)(C(F)(F)F)N2)c1 (stereo not given),3300,350,64,51,> 3200,4.5,,,
